Data as given in PubChem BioAssay AID248 (DTP/NCI, 2004).
Inconclusive results and toxic doses are left out. Cut-off read from the data, not from the text of the source: active = T/C of 150% or more; inactive = T/C below 125%.

Test system: L1210 leukemia ip in BDF1 mice, survival T/C
Assay: NCI In Vivo Anticancer Drug Screen. Data for tumor model L1210 Leukemia (intraperitoneal) in B6D2F1 (BDF1) mice
Settings: endpoint: mean survival time, higher = longer survival
In short: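 Each compound was tested against a transplantable tumor grown in mice. The endpoint was survival, with treated animals benchmarked against vehicle controls as a simple ratio.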

[1] = dose: 100.0 mg/kg/injection, schedule: Q01DX005 (ip), vehicle: saline
[2] = dose: 200.0 mg/kg/injection, schedule: Q01DX005 (ip), vehicle: saline
[3] = dose: 100.0 mg/kg/injection, schedule: Q01DX001 (ip), vehicle: carboxymethylcellulose (CMC)
[4] = dose: 100.0 mg/kg/injection, schedule: Q04DX003 (ip), vehicle: saline with Tween-80
[5] = dose: 200.0 mg/kg/injection, schedule: Q04DX003 (ip), vehicle: saline with Tween-80
[6] = dose: 100.0 mg/kg/injection, schedule: Q04DX002 (ip), vehicle: Klucel (hydroxypropylcellulose) (HPC)
[7] = dose: 200.0 mg/kg/injection, schedule: Q04DX002 (ip), vehicle: Klucel (hydroxypropylcellulose) (HPC)
[8] = dose: 400.0 mg/kg/injection, schedule: Q04DX002 (ip), vehicle: Klucel (hydroxypropylcellulose) (HPC)
[9] = dose: 400.0 mg/kg/injection, schedule: Q04DX003 (ip), vehicle: saline with Tween-80
[10] = dose: 100.0 mg/kg/injection, schedule: Q01DX001 (ip), vehicle: saline
[11] = dose: 200.0 mg/kg/injection, schedule: Q01DX001 (ip), vehicle: saline
[12] = dose: 400.0 mg/kg/injection, schedule: Q01DX001 (ip), vehicle: saline
[13] = dose: 100.0 mg/kg/injection, schedule: Q04DX003 (ip), vehicle: saline
[14] = dose: 200.0 mg/kg/injection, schedule: Q04DX003 (ip), vehicle: saline
[15] = dose: 20.0 mg/kg/injection, schedule: Q04DX003 (ip), vehicle: saline with Tween-80
[16] = dose: 100.0 mg/kg/injection, schedule: Q01DX009 (ip), vehicle: saline with Tween-80
[17] = dose: 200.0 mg/kg/injection, schedule: Q01DX009 (ip), vehicle: saline with Tween-80
[18] = dose: 400.0 mg/kg/injection, schedule: Q01DX009 (ip), vehicle: saline with Tween-80

Measured: T/C

Cc1cc[n+]2cc3c(ccc4ccccc43)c(C)c2c1
inactive: dose: 2.0 mg/kg/injection, schedule: Q01DX015 (ip), vehicle: carboxymethylcellulose (CMC) 103 % of control | dose: 4.0 mg/kg/injection, schedule: Q01DX015 (ip), vehicle: carboxymethylcellulose (CMC) 124 % of control | dose: 8.0 mg/kg/injection, schedule: Q01DX015 (ip), vehicle: carboxymethylcellulose (CMC) 117 % of control | dose: 16.0 mg/kg/injection, schedule: Q01DX015 (ip), vehicle: carboxymethylcellulose (CMC) 98 % of control | dose: 25.0 mg/kg/injection, schedule: Q01DX001 (ip), vehicle: carboxymethylcellulose (CMC) 107 % of control

CC(=O)OC1C(CF)OC(n2cnc3c(Cl)ncnc32)C1OC(C)=O (configuration not stated)
inactive: [1] 98 % of control | [2] 97 % of control

CN(C)c1ccc2nc3c(C(=O)O)cc(=O)c(O)c-3oc2c1
inactive: dose: 50.0 mg/kg/injection, schedule: Q01DX001 (ip), vehicle: carboxymethylcellulose (CMC) 104 % of control | [3] 101 % of control

CC(=O)Oc1ccc(Cl)cc1Cl
inactive: [4] 100 % of control | [5] 97 % of control

COc1ccc(N)c(CC2c3ccccc3CCN2C)c1 (configuration not stated)
inactive: dose: 10.0 mg/kg/injection, schedule: Q01DX001 (ip), vehicle: carboxymethylcellulose (CMC) 103 % of control | dose: 20.0 mg/kg/injection, schedule: Q01DX001 (ip), vehicle: carboxymethylcellulose (CMC) 105 % of control | dose: 40.0 mg/kg/injection, schedule: Q01DX001 (ip), vehicle: carboxymethylcellulose (CMC) 105 % of control | dose: 80.0 mg/kg/injection, schedule: Q01DX001 (ip), vehicle: carboxymethylcellulose (CMC) 100 % of control | [3] 96 % of control

O=C(Nc1cccc([N+](=O)[O-])c1)c1ccc(Cl)cc1
inactive: dose: 100.0 mg/kg/injection, schedule: Q04DX003 (ip), vehicle: gum acacia 101 % of control | dose: 200.0 mg/kg/injection, schedule: Q04DX003 (ip), vehicle: gum acacia 95 % of control | dose: 400.0 mg/kg/injection, schedule: Q04DX003 (ip), vehicle: gum acacia 101 % of control

Cc1cccc(C)c1OC(=O)Nc1ccccc1
inactive: [6] 101 % of control | [7] 97 % of control | [8] 101 % of control

C[C@]1(O)CC[C@H]2[C@@H]3CC[C@@H]4CC(=O)CC[C@]4(C)[C@@]3(F)C(=O)C[C@@]21C
inactive: dose: 50.0 mg/kg/injection, schedule: Q01DX Z (sc), vehicle: steriod suspending solution 96 % of control | dose: 250.0 mg/kg/injection, schedule: Q01DX Z (sc), vehicle: steriod suspending solution 101 % of control | dose: 500.0 mg/kg/injection, schedule: Q01DX Z (sc), vehicle: steriod suspending solution 98 % of control

CCN(Cc1ccccc1)C(=O)Nc1ccccc1
inactive: [6] 101 % of control | [7] 93 % of control | [8] 97 % of control

CN(C)c1ccc(N=C(C#N)C(=O)c2ccccc2)cc1
inactive: [4] 95 % of control | [5] 95 % of control | [9] 102 % of control

COc1ccc(C(=O)CC(C)=O)c(OCc2ccccc2)c1OC
inactive: [10] 101 % of control | [11] 98 % of control | [12] 104 % of control

CC1CC(C)(C)N=C(C(C)CC(C)(C)C)O1 (configuration not stated)
inactive: [13] 105 % of control | [14] 94 % of control

C[N+](C)(C)Cc1cccc([N+](=O)[O-])c1
inactive: dose: 12.0 mg/kg/injection, schedule: Q01DX009 (ip), vehicle: saline 90 % of control | dose: 25.0 mg/kg/injection, schedule: Q01DX009 (ip), vehicle: saline 92 % of control | dose: 50.0 mg/kg/injection, schedule: Q01DX001 (ip), vehicle: saline 98 % of control | dose: 50.0 mg/kg/injection, schedule: Q01DX009 (ip), vehicle: saline 93 % of control

O=C1C=CC(=O)N1CCc1ccccc1
inactive: dose: 3.0 mg/kg/injection, schedule: Q01DX009 (ip), vehicle: Klucel (hydroxypropylcellulose) (HPC) 106 % of control | dose: 5.0 mg/kg/injection, schedule: Q01DX009 (ip), vehicle: saline with Tween-80 91 % of control | dose: 6.0 mg/kg/injection, schedule: Q01DX009 (ip), vehicle: Klucel (hydroxypropylcellulose) (HPC) 95 % of control | dose: 10.0 mg/kg/injection, schedule: Q01DX009 (ip), vehicle: saline with Tween-80 87 % of control | dose: 12.0 mg/kg/injection, schedule: Q01DX009 (ip), vehicle: Klucel (hydroxypropylcellulose) (HPC) 103 % of control | dose: 12.5 mg/kg/injection, schedule: Q01DX009 (ip), vehicle: Klucel (hydroxypropylcellulose) (HPC) 97 % of control | dose: 20.0 mg/kg/injection, schedule: Q01DX009 (ip), vehicle: saline with Tween-80 101 % of control | [15] 95 % of control

COC(=O)c1n[nH]c(C2OCC3OC(C)(C)OC32)c1Br (configuration not stated)
inactive: [1] 100 % of control | [2] 91 % of control

Cc1ccc(SCc2c(COc3ccc(Cl)cc3)sc3ccc(Cl)cc23)cc1
inactive: [16] 102 % of control | [17] 119 % of control | [18] 97 % of control

COc1ccc(Cl)cc1NC(=O)N1CCN(c2ccccc2)CC1
inactive: dose: 100.0 mg/kg/injection, schedule: Q01DX009 (ip), vehicle: Klucel (hydroxypropylcellulose) (HPC) 120 % of control | [13] 101 % of control | dose: 200.0 mg/kg/injection, schedule: Q01DX009 (ip), vehicle: Klucel (hydroxypropylcellulose) (HPC) 97 % of control | [14] 101 % of control | dose: 400.0 mg/kg/injection, schedule: Q01DX009 (ip), vehicle: Klucel (hydroxypropylcellulose) (HPC) 111 % of control | dose: 400.0 mg/kg/injection, schedule: Q04DX003 (ip), vehicle: saline 97 % of control

C=CCC1(/C(C)=C/C)C(=O)NC(=O)NC1=O
inactive: dose: 75.0 mg/kg/injection, schedule: Q01DX001 (ip), vehicle: saline 100 % of control | dose: 150.0 mg/kg/injection, schedule: Q01DX001 (ip), vehicle: saline 94 % of control

O=C(O)CCSc1ccccc1
inactive: dose: 40.0 mg/kg/injection, schedule: Q01DX009 (ip), vehicle: saline with Tween-80 96 % of control | dose: 75.0 mg/kg/injection, schedule: Q01DX009 (ip), vehicle: saline with Tween-80 88 % of control | dose: 75.0 mg/kg/injection, schedule: Q04DX003 (ip), vehicle: saline 96 % of control | dose: 150.0 mg/kg/injection, schedule: Q01DX009 (ip), vehicle: saline with Tween-80 101 % of control

CCC(C(=O)C(C)C(O)C(C)CCc1ccc(C)c(O)c1C(=O)O)C1OC(CC)(C2CCC(O)(CC)C(C)O2)CC1C (configuration not stated)
inactive: dose: 6.25 mg/kg/injection, schedule: Q04DX002 (ip), vehicle: saline 100 % of control | dose: 12.5 mg/kg/injection, schedule: Q04DX002 (ip), vehicle: saline 92 % of control | dose: 25.0 mg/kg/injection, schedule: Q04DX002 (ip), vehicle: saline 92 % of control | dose: 50.0 mg/kg/injection, schedule: Q04DX002 (ip), vehicle: saline 103 % of control

c1ccc2c(c1)ccc1[nH]c3ccccc3c12
inactive: [10] 120 % of control | [11] 96 % of control | [12] 93 % of control

Nc1nccnc1Cl
inactive: dose: 75.0 mg/kg/injection, schedule: Q01DX001 (ip), vehicle: acetone 104 % of control | dose: 150.0 mg/kg/injection, schedule: Q01DX001 (ip), vehicle: acetone 104 % of control | dose: 300.0 mg/kg/injection, schedule: Q01DX001 (ip), vehicle: acetone 96 % of control

CNC(=O)NCc1ccc(Cl)cc1
inactive: [4] 105 % of control | [5] 98 % of control | [9] 107 % of control

Cc1cccc(N=Nc2c(C)nc(N)nc2C)c1C
inactive: dose: 100.0 mg/kg/injection, schedule: Q04DX003 (ip), vehicle: other 94 % of control | dose: 200.0 mg/kg/injection, schedule: Q04DX003 (ip), vehicle: other 96 % of control | dose: 400.0 mg/kg/injection, schedule: Q04DX003 (ip), vehicle: other 93 % of control

CCOC(=O)Nc1cccc(O)c1
inactive: [16] 91 % of control | [17] 103 % of control | [18] 92 % of control

O=C1CC2(CCCCC2)C(=O)N1
inactive: dose: 5.0 mg/kg/injection, schedule: Q04DX003 (ip), vehicle: saline with Tween-80 102 % of control | dose: 10.0 mg/kg/injection, schedule: Q04DX003 (ip), vehicle: saline with Tween-80 102 % of control | [15] 102 % of control
